Measured values as given in patent US7270837B2, “Anti-inflammatory cranberry flavonol extract preparations” (Rutgers, The State University of New Jersey, priority 2003, dated 2007).
Entries after “also recorded” stand apart in the source; their conditions may differ.

System: TPA-induced edema of mouse ears
Assay: TPA-induced mouse ear edema assay of quercetin-3-O-(6″-benzoyl)-β-galactoside (Example 3)
Type: in vivo, mouse (CD-1 female)
Conditions: topical, purified compound
Description: The anti-inflammatory activity of quercetin-3-O-(6″-benzoyl)-β-galactoside (Peak 19) was tested in vivo with the 12-O-tetradecanoylphorbol-13-acetate (TPA)-induced mouse ear edema assay. Each of the treatments was topically applied to both ears of at least five CD-1 female mice. Treatments included application of either acetone or curcumin controls or the test extract in 20 μl of acetone twenty minutes prior to application of 1.5 nmol of TPA in acetone. After 7 hours post-treatment, mice were sacrificed and 6 mm diameter ear punch biopsies were taken and weighed. The ratio of the difference in the weight of ear punches between TPA treated groups receiving pretreatments of acetone and the test extract, respectively, to the difference in the weight of ear punches between acetone pretreated groups subsequently treated with TPA and acetone, respectively, indicates the degree of anti-inflammatory activity of the test extract.

## O=C(OC[C@H]1O[C@@H](Oc2c(-c3ccc(O)c(O)c3)oc3cc(O)cc(O)c3c2=O)[C@H](O)[C@@H](O)[C@H]1O)c1ccccc1 [quercetin-3-O-(6″-benzoyl)-β-galactoside]
  anti-inflammatory activity in the TPA-induced mouse ear edema assay (in words): potent anti-inflammatory agent; also recorded: highly effective inhibitor of inflammation
